Where no end group is shown, it is not given here.
Legend:
[1] = tested on: S. epidermidis 12228; format: cell-based, Staphylococcus epidermidis; conditions: 12228, 24 h
Procedure: (§1) The antimicrobial activities of the peptides were measured using a method adapted from the National Committee for Clinical Laboratory Standards (NCCLS) with some modifications ([Chou et al., 2016]). The specific procedure for these assays has been previously described. In brief, the bacterial cells were grown to a mid-logarithmic phase and diluted in MHB to an ultimate concentration of 0.5–1 × 10^6 CFU mL^–1. Subsequently, the peptides were consecutively diluted in a 0.2% BSA solution and then added to a bacterial solution in a 96-well plate at identical volumes. After incubation for 24 h at 37°C, the MICs were determined to be the lowest peptide concentration that inhibited 95% of the bacterial growth by monitoring the absorbance at 492 nm using a microplate reader. Subsequently, 50 μL of each incubation mixture was further transferred to agar plates and incubated overnight. The minimum bactericidal concentrations (MBCs) were determined as the lowest peptide concentration that killed greater than 99.9% of the bacterial cells. Every assay was reproduced more than 3 times.

[2] = tested on: E. coli O78; format: cell-based, Escherichia coli; conditions: O78, 24 h
Procedure: as §1

[3] = tested on: E. coli 25922; format: cell-based, Escherichia coli; conditions: 25922, 24 h
Procedure: as §1

[4] = tested on: E. coli UB1005; format: cell-based, Escherichia coli; conditions: UB1005, 24 h
Procedure: as §1

[5] = tested on: Gram-positive bacteria; conditions: for GM, Gram-positive bacteria: geometric mean of MICs (Table 3); for TI, Gram-positive bacteria: therapeutic index TI = MHC/GM MIC
Procedure: (§2) The antimicrobial activity of AMPs is the most decisive index for evaluating the clinical application of antimicrobial drugs.
as §1, with “The minimum bactericidal concentrations (MBCs) were determined as the lowest peptide concentration that killed greater than 99.9% of the bacterial cells.” left out

[6] = tested on: Gram-negative bacteria; conditions: for GM, Gram-negative bacteria: geometric mean of MICs (Table 3); for TI, Gram-negative bacteria: therapeutic index TI = MHC/GM MIC
Procedure: as §2
as §1, with “The minimum bactericidal concentrations (MBCs) were determined as the lowest peptide concentration that killed greater than 99.9% of the bacterial cells.” left out

[7] = tested on: E. coli ATCC 25922; test: Salt sensitivity assay (MIC); format: cell-based, Escherichia coli; conditions: for MIC, FeCl3: 4 μM FeCl3; for MIC, NH4Cl: 6 μM NH4Cl; for MIC, ZnCl2: 8 μM ZnCl2; for MIC, MgCl2: 1 mM MgCl2; for MIC, CaCl2: 2 mM CaCl2; for MIC, KCl: 4.5 mM KCl; for MIC, NaCl: 150 mM NaCl; for MIC, Control: no added salt, three independent assays
Procedure: as §1
(§3) The salt sensitivities of the peptides were determined. E. coli ATCC 25922 and S. aureus ATCC 29213 were incubated in the presence of various ultimate concentrations of physiological salts (150 mM NaCl, 4.5 mM KCl, 6 μM NH4Cl, 8 μM ZnCl2, 1 mM MgCl2, 2mM CaCl2, and 4 μM FeCl3) according to our previous protocol ([Yang et al., 2019]). These tests were performed under the MICs, and three independent assays were performed.

[8] = tested on: E. faecalis 29212; format: cell-based, Enterococcus faecalis; conditions: 29212, 24 h
Procedure: as §1

[9] = tested on: B. subtilis 63501; format: cell-based, Bacillus subtilis; conditions: 63501, 24 h
Procedure: as §1

[10] = tested on: S. aureus 29213; test: Salt sensitivity assay (MIC); format: cell-based, Staphylococcus aureus; conditions: for MIC, FeCl3: 4 μM FeCl3; for MIC, NH4Cl: 6 μM NH4Cl; for MIC, ZnCl2: 8 μM ZnCl2; for MIC, MgCl2: 1 mM MgCl2; for MIC, CaCl2: 2 mM CaCl2; for MIC, KCl: 4.5 mM KCl; for MIC, NaCl: 150 mM NaCl; for MIC, Control: no added salt, three independent assays
Procedure: as §1, §3

[11] = tested on: S. pullorum 7913; format: cell-based, Salmonella pullorum; conditions: 7913, 24 h
Procedure: as §1

[12] = tested on: S. aureus 29213; format: cell-based, Staphylococcus aureus; conditions: 29213, 24 h
Procedure: as §1

[13] = tested on: S. aureus 25923; format: cell-based, Staphylococcus aureus; conditions: 25923, 24 h
Procedure: as §1

[14] = tested on: Listeria monocytogenes CGMCC 1.1075; format: cell-based; conditions: CGMCC 1.1075, 24 h
Procedure: as §1

[15] = tested on: all of the tested bacterial strains; test: Geometric mean of MICs, all tested bacterial strains; format: cell-based; conditions: for GM, All: geometric mean of MICs across all tested strains; for TI, All: therapeutic index TI = MHC/GM MIC
Excerpt: The antimicrobial activity of AMPs is the most decisive index for evaluating the clinical application of antimicrobial drugs. Many antimicrobial agents inhibit bacterial growth rather than kill the bacteria quickly, and long-term infections are pathogens that are not completely killed, which results in bacterial severe drug resistance. […] The geometric mean (GM) values of the MICs/MBCs of the two series across all of the tested bacterial strains are represented in Table 3, which depicts the average bacteriostatic/bactericidal level of a peptide.
as §1

[16] = tested on: P. aeruginosa 27853; format: cell-based, Pseudomonas aeruginosa; conditions: 27853, 24 h
Procedure: as §1

[17] = tested on: S. typhimurium 14028; format: cell-based, Salmonella typhimurium; conditions: 14028, 24 h
Procedure: as §1

[18] = tested on: S. typhimurium 7731; format: cell-based, Salmonella typhimurium; conditions: 7731, 24 h
Procedure: as §1

[19] = tested on: MRSA 43300; format: cell-based, methicillin-resistant S. aureus; conditions: 43300, 24 h
Procedure: as §1

Substance: WRRRRWWWW-NH2 [W11]
- MBC [1]: 4 µM
- MIC [1]: 2 µM
- MBC [2]: 16 µM
- MIC [2]: 8 µM
- MBC [3]: 8 µM
- MIC [3]: 4 µM
- MBC [4]: 8 µM
- MIC [4]: 4 µM
- GM, Gram-positive bacteria [5]: 2.21 µM
- TI, Gram-positive bacteria [5]: 115.84
- GM, Gram-negative bacteria [6]: 5.88 µM
- TI, Gram-negative bacteria [6]: 43.54
- MIC, FeCl3 [7]: 4 µM
- MIC, NH4Cl [7]: 2 µM
- MIC, ZnCl2 [7]: 2 µM
- MIC, MgCl2 [7]: 8 µM
- MIC, CaCl2 [7]: 16 µM
- MIC, KCl [7]: 8 µM
- MIC, NaCl [7]: 8 µM
- MIC, Control [7]: 4 µM
- MBC [8]: 8 µM
- MIC [8]: 4 µM
- MBC [9]: 2 µM
- MIC [9]: 1 µM
- MIC, FeCl3 [10]: 2 µM
- MIC, NH4Cl [10]: 1 µM
- MIC, ZnCl2 [10]: 2 µM
- MIC, MgCl2 [10]: 2 µM
- MIC, CaCl2 [10]: 2 µM
- MIC, KCl [10]: 1 µM
- MIC, NaCl [10]: 2 µM
- MIC, Control [10]: 2 µM
- MBC [11]: 8 µM
- MIC [11]: 4 µM
- MBC [12]: 4 µM
- MIC [12]: 2 µM
- MBC [13]: 4 µM
- MIC [13]: 2 µM
- MBC [14]: 8 µM
- MIC [14]: 4 µM
- GM, All [15]: 3.83 µM
- TI, All [15]: 66.84
- MBC [16]: 16 µM
- MIC [16]: 8 µM
- MBC [17]: 16 µM
- MIC [17]: 8 µM
- MBC [18]: 16 µM
- MIC [18]: 8 µM
- MBC [19]: 4 µM
- MIC [19]: 2 µM

Substance: WWWRRRRWW-NH2 [W4]
- MBC [1]: 4 µM
- MIC [1]: 2 µM
- MBC [2]: 16 µM
- MIC [2]: 8 µM
- MBC [3]: 8 µM
- MIC [3]: 4 µM
- MBC [4]: 16 µM
- MIC [4]: 8 µM
- GM, Gram-positive bacteria [5]: 2.69 µM
- TI, Gram-positive bacteria [5]: 47.58
- GM, Gram-negative bacteria [6]: 5.88 µM
- TI, Gram-negative bacteria [6]: 21.77
- MIC, FeCl3 [7]: 4 µM
- MIC, NH4Cl [7]: 2 µM
- MIC, ZnCl2 [7]: 4 µM
- MIC, MgCl2 [7]: 16 µM
- MIC, CaCl2 [7]: 8 µM
- MIC, KCl [7]: 16 µM
- MIC, NaCl [7]: 16 µM
- MIC, Control [7]: 4 µM
- MBC [8]: 8 µM
- MIC [8]: 4 µM
- MBC [9]: 2 µM
- MIC [9]: 1 µM
- MIC, FeCl3 [10]: 2 µM
- MIC, NH4Cl [10]: 1 µM
- MIC, ZnCl2 [10]: 1 µM
- MIC, MgCl2 [10]: 1 µM
- MIC, CaCl2 [10]: 2 µM
- MIC, KCl [10]: 1 µM
- MIC, NaCl [10]: 1 µM
- MIC, Control [10]: 2 µM
- MBC [11]: 8 µM
- MIC [11]: 4 µM
- MBC [12]: 4 µM
- MIC [12]: 2 µM
- MBC [13]: 4 µM
- MIC [13]: 2 µM
- MBC [14]: 32 µM
- MIC [14]: 16 µM
- GM, All [15]: 4.18 µM
- TI, All [15]: 30.62
- MBC [16]: 16 µM
- MIC [16]: 8 µM
- MBC [17]: 16 µM
- MIC [17]: 8 µM
- MBC [18]: 16 µM
- MIC [18]: 8 µM
- MBC [19]: 4 µM
- MIC [19]: 2 µM

Substance: WWRWRRRWW-NH2 [W2]
- MBC [1]: 4 µM
- MIC [1]: 2 µM
- MBC [2]: 16 µM
- MIC [2]: 8 µM
- MBC [3]: 8 µM
- MIC [3]: 4 µM
- MBC [4]: 8 µM
- MIC [4]: 4 µM
- GM, Gram-positive bacteria [5]: 2.97 µM
- TI, Gram-positive bacteria [5]: 86.20
- GM, Gram-negative bacteria [6]: 5.44 µM
- TI, Gram-negative bacteria [6]: 47.06
- MIC, FeCl3 [7]: 8 µM
- MIC, NH4Cl [7]: 4 µM
- MIC, ZnCl2 [7]: 4 µM
- MIC, MgCl2 [7]: 4 µM
- MIC, CaCl2 [7]: 8 µM
- MIC, KCl [7]: 4 µM
- MIC, NaCl [7]: 16 µM
- MIC, Control [7]: 4 µM
- MBC [8]: 16 µM
- MIC [8]: 8 µM
- MBC [9]: 2 µM
- MIC [9]: 1 µM
- MIC, FeCl3 [10]: 4 µM
- MIC, NH4Cl [10]: 2 µM
- MIC, ZnCl2 [10]: 4 µM
- MIC, MgCl2 [10]: 4 µM
- MIC, CaCl2 [10]: 4 µM
- MIC, KCl [10]: 4 µM
- MIC, NaCl [10]: 4 µM
- MIC, Control [10]: 2 µM
- MBC [11]: 8 µM
- MIC [11]: 4 µM
- MBC [12]: 4 µM
- MIC [12]: 2 µM
- MBC [13]: 4 µM
- MIC [13]: 2 µM
- MBC [14]: 32 µM
- MIC [14]: 16 µM
- GM, All [15]: 4.18 µM
- TI, All [15]: 61.24
- MBC [16]: 32 µM
- MIC [16]: 16 µM
- MBC [17]: 16 µM
- MIC [17]: 8 µM
- MBC [18]: 8 µM
- MIC [18]: 4 µM
- MBC [19]: 4 µM
- MIC [19]: 2 µM

Substance: WWRWWRRRW-NH2 [W1]
- MBC [1]: 4 µM
- MIC [1]: 2 µM
- MBC [2]: 8 µM
- MIC [2]: 4 µM
- MBC [3]: 8 µM
- MIC [3]: 4 µM
- MBC [4]: 8 µM
- MIC [4]: 4 µM
- GM, Gram-positive bacteria [5]: 2.44 µM
- TI, Gram-positive bacteria [5]: 26.23
- GM, Gram-negative bacteria [6]: 4.67 µM
- TI, Gram-negative bacteria [6]: 13.70
- MIC, FeCl3 [7]: 2 µM
- MIC, NH4Cl [7]: 4 µM
- MIC, ZnCl2 [7]: 2 µM
- MIC, MgCl2 [7]: 2 µM
- MIC, CaCl2 [7]: 2 µM
- MIC, KCl [7]: 4 µM
- MIC, NaCl [7]: 8 µM
- MIC, Control [7]: 4 µM
- MBC [8]: 8 µM
- MIC [8]: 4 µM
- MBC [9]: 2 µM
- MIC [9]: 1 µM
- MIC, FeCl3 [10]: 2 µM
- MIC, NH4Cl [10]: 2 µM
- MIC, ZnCl2 [10]: 2 µM
- MIC, MgCl2 [10]: 2 µM
- MIC, CaCl2 [10]: 2 µM
- MIC, KCl [10]: 2 µM
- MIC, NaCl [10]: 4 µM
- MIC, Control [10]: 2 µM
- MBC [11]: 8 µM
- MIC [11]: 4 µM
- MBC [12]: 4 µM
- MIC [12]: 2 µM
- MBC [13]: 4 µM
- MIC [13]: 2 µM
- MBC [14]: 16 µM
- MIC [14]: 8 µM
- GM, All [15]: 3.51 µM
- TI, All [15]: 18.23
- MBC [16]: 16 µM
- MIC [16]: 8 µM
- MBC [17]: 8 µM
- MIC [17]: 4 µM
- MBC [18]: 8 µM
- MIC [18]: 4 µM
- MBC [19]: 4 µM
- MIC [19]: 2 µM
